Source: article PMC9753400, “Conformational alteration in glycan induces phospholipase Cβ1 activation and angiogenesis” (Journal of Biomedical Science, 2022)

Key:
[1] = molecular target: T1, TRAX (translin-associated factor X) (Homo sapiens, UniProt Q99598); test: SPR (Biacore X), TRAX amine-coupled to CM5 chip; assay type: binding; settings: HBS-P running buffer, GSL diluted from methanol stock
T1 construct: gene TSNAX; full-length, cDNA from HUVEC mRNA, pET-21d, nine-histidine tag (text says N-terminal; His codons printed in the R'-primer), expressed in E. coli BL21 (DE3), HisTrap / DEAE / SP-Sepharose; immobilised on CM5 chip
T1 sequence (Q99598 1-290): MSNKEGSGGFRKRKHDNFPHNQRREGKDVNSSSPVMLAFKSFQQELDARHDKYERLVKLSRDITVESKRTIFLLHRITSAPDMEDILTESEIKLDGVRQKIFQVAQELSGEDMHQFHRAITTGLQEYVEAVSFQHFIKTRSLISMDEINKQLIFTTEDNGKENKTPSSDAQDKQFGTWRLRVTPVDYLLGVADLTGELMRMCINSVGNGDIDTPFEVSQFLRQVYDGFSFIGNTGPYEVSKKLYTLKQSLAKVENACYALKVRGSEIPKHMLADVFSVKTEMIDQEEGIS

[2] = molecular target: T2, recombinant human full-length translin-associated factor X (TRAX) (human, UniProt Q99598 1-290); test: SPR; Biacore X; TRAX amine-coupled to CM5 chip (about 2500 RU), PLCβ1-C flowed over, HBS-P running buffer; competition runs with PLCβ1-C 360 nM plus 0, 1 or 9 μM GHCer; settings: both partners purified
T2 construct: translin-associated factor X (TRAX), human, full length, cDNA from HUVECs, in pET-21d; Removal of the tag is not mentioned; also called recombinant TRAX; wild-type TRAX; source: E. coli BL21 (DE3) pLys, purified (HisTrap FF, DEAE-Sepharose, SP-Sepharose)
T2 sequence (looked up): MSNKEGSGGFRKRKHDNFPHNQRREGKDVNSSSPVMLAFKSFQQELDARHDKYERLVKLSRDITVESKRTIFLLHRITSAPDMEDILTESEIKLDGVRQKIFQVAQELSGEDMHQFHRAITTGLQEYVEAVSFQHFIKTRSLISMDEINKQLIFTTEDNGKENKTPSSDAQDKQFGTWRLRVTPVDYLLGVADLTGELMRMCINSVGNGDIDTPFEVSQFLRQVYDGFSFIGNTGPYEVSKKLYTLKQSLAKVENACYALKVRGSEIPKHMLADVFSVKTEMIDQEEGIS

Q: How did the Kd ([1]; competes with PLCβ1 C-terminal domain) turn out when “Fucα1 → 2Galβ1 → 3GalNAcβ1 → 3Galα1 → 4Galβ1 → 4Glcβ1-ceramide [GHCer]” was run?
A: Its Kd is 0.0409 µM.

Q: For “Galβ1 → 3GalNAcβ1 → 3Galα1 → 4Galβ1 → 4Glcβ1-ceramide [SSEA3Cer]”, which Kd ([1]; tested at 10 μM) is on record?
A: The Kd was over 10 µM.

B1: recombinant C-terminal domain of PLCβ1 (PLCβ1-C), amino acids 890 to 1161 (domain or fragment, human, UniProt Q9NQ66 890-1161, looked up)
chain: APAKTEDLIQSVLTEVEAQTIEELKQQKSFVKLQKKHYKEMKDLVKRHHKKTTDLIKEHTTKYNEIQNDYLRRRAALEKSAKKDSKKKSEPSSPDHGSSTIEQDLAALDAEMTQKLIDLKDKQQQQLLNLRQEQYYSEKYQKREHIKLLIQKLTDVAEECQNNQLKKLKEICEKEKKELKKKMDKKRQEKITEAKSKDKSQMEEEKTEMIRSYIQEVVQYIKRLEEAQSKRQEKLVEKHKEIRQQILDEKPKLQVELEQEYQDKFKRLPLEI
notes: phospholipase C β1 (PLCβ1), human, C-terminal domain, residues 890-1161, cDNA from HUVECs, in pET-21d; Removal of the tag is not mentioned; also called recombinant C-terminus of PLCβ1; source: E. coli BL21 (DE3) pLys, purified (HisTrap FF, DEAE-Sepharose, SP-Sepharose)
Q: How did the Kd [2] turn out when B1 was run?
A: Its Kd is about 7.5 µM.
